From patent US20080188494A1 (priority 2005, published 2008)

Assays:
Plasmopara viticola [1] = experiment: Activity against peronospora of grapevines caused by Plasmopara viticola (Comparative Example 1, inoculation next day); assay type: in vivo; conditions: 250 ppm, potted vines sprayed to runoff, inoculated next day; untreated plants 90% infected
Description: (§1) The active compounds were prepared as a stock solution comprising 25 mg of active compound which was made up to 10 ml using a mixture of acetone and/or DMSO and the emulsifier Uniperol® EL (wetting agent having emulsifying and dispersing action based on ethoxylated alkylphenols) in a volume ratio of solvent/emulsifier of 99/1. The mixture was then made up to 100 ml with water. This stock solution was diluted with the solvent/emulsifier/water mixture described to the concentration of active compounds stated below.
(§2) Leaves of potted vines were sprayed to runoff point with an aqueous suspension having the concentration of active compounds stated below. The next day, the undersides of the leaves were inoculated with an aqueous sporangia suspension of Plasmopara viticola. The vines were then initially placed in a water-vapor-saturated chamber at 24° C. for 48 hours and then in a greenhouse at temperatures between 20° C. and 30° C. for 5 days. After this time, the plants were once more placed in a humid chamber for 16 hours to accelerate the eruption of sporangiospores. The extent of the development of the infection on the undersides of the leaves was then determined visually.

Plasmopara viticola [2] = experiment: Activity against peronospora of grapevines caused by Plasmopara viticola, 7 day protective treatment (Comparative Example 2); assay type: in vivo; conditions: 250 ppm, potted vines, inoculated 7 days after spraying; untreated plants 90% infected
Description: as §1
Leaves of potted vines were sprayed to runoff point with an aqueous suspension having the concentration of active compounds stated below. To be able to assess the persistency of the substances, the plants were, after the spray coating had dried on, placed in a greenhouse for 7 days. Only then were the leaves inoculated with an aqueous zoospore suspension of Plasmopara viticola. The vines were then initially placed in a water-vapor-saturated chamber at 24° C. for 48 hours and then in a greenhouse at temperatures between 20 and 30° C. for 5 days. After this time, the plants were once more placed in a humid chamber to accelerate the eruption of sporangiospores. The extent of the development of the infection on the undersides of the leaves was then determined visually.

Plasmopara viticola [3] = experiment: Activity against peronospora of grapevines caused by Plasmopara viticola (Use Example 3); assay type: in vivo; conditions: 250 ppm, potted vines sprayed to runoff, inoculated next day; untreated plants 90% infected
Description: as §1, §2

## Cc1nc2ncnn2c(N)c1CCCc1ccccc1 [Compound A]
Plasmopara viticola [1]
  infection of the plants (undersides of leaves, determined visually): 90%
Plasmopara viticola [2]
  infection of the plants (undersides of leaves, determined visually): 70%

## CCc1nc2ncnn2c(N)c1CCc1ccccc1 [I-1, 7-amino-5-ethyl-6-(2-phenylethyl)-(1,2,4)-triazolo-(1,5-a)-pyrimidine]
other
  melting point: 210 to 211 °C
Plasmopara viticola [3]
  infection of the plants (undersides of leaves, determined visually): no infection

## CCCc1nc2ncnn2c(N)c1CCc1ccccc1 [I-2, 7-amino-6-(2-phenylethyl)-5-propyl-(1,2,4)-triazolo-(1,5-a)-pyrimidine]
other
  melting point: 190 to 191 °C
Plasmopara viticola [3]
  infection of the plants (undersides of leaves, determined visually): no infection
